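At the GI50, growth is halved. Definition used: TGI = concentration required for complete inhibition of growth.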
Experiments:
Experiment in all cases: inhibition of tumour cell growth, NCI panel, 384-well format
[1] = system: EKVX NSCLC
[2] = system: A549 NSCLC
[3] = system: TK-10 renal
[4] = system: SK-MEL-5 melanoma
[5] = system: HOP-62 NSCLC
[6] = system: NCI-H460 NSCLC
[7] = system: OVCAR-8 ovarian
[8] = system: HOP-92 NSCLC
[9] = system: SN12C renal
[10] = system: UACC-257 melanoma
[11] = system: UACC-62 melanoma
[12] = system: SNB-75 CNS
[13] = system: BT-549 breast
[14] = system: ACHN renal
[15] = system: DU-145 prostate
[16] = system: OVCAR-3 ovarian
[17] = system: HCT-116 colon
[18] = system: SF-268 CNS
[19] = system: NCI-H322M lung
[20] = system: SW-620 colon
[21] = system: U251 glioblastoma
[22] = system: SK-OV-3 ovarian
[23] = system: OVCAR-4 ovarian
[24] = system: T-47D breast
[25] = system: A498 renal
[26] = system: KM12 colon
[27] = system: SK-MEL-2 melanoma
[28] = system: HT29 colon

## CC(C)[C@@H](CS(=O)(=O)C(C)C)N1C(=O)[C@@](C)(CC(=O)O)C[C@H](c2cccc(Cl)c2)[C@H]1c1ccc(Cl)cc1
[1]
  TGI: 51.5 µM
[2]
  GI50: 0.433 µM
  TGI: 13 µM
[3]
  GI50: 35.2 µM
  TGI: > 100 µM
[4]
  GI50: 0.994 µM
  TGI: 15 µM
[5]
  GI50: 21.5 µM
  TGI: 51.1 µM
[6]
  GI50: 29.3 µM
  TGI: > 100 µM
[7]
  GI50: 21.1 µM
  TGI: 92.3 µM
[8]
  GI50: 17.7 µM
  TGI: 40.4 µM
[9]
  GI50: 32.1 µM
  TGI: > 100 µM
[10]
  GI50: 0.203 µM
  TGI: 0.671 µM
[11]
  GI50: 0.151 µM
  TGI: 12.8 µM
[12]
  GI50: 26.1 µM
  TGI: > 100 µM
[13]
  GI50: 17.5 µM
  TGI: 34.4 µM
[14]
  GI50: 0.228 µM
  TGI: 0.949 µM
[15]
  GI50: 27.2 µM
  TGI: > 100 µM
[16]
  GI50: 14.5 µM
  TGI: 29.7 µM
[17]
  GI50: 0.334 µM
  TGI: 15.1 µM
[18]
  GI50: 28.9 µM
  TGI: > 100 µM
[19]
  GI50: 37.1 µM
  TGI: 94.1 µM
[20]
  GI50: 37 µM
  TGI: > 100 µM
[21]
  GI50: 15.5 µM
  TGI: 37.8 µM
[22]
  GI50: 24 µM
  TGI: 80.2 µM
[23]
  GI50: 18.3 µM
  TGI: > 100 µM
[24]
  GI50: 23.3 µM
  TGI: 73.2 µM
[25]
  GI50: 0.295 µM
  TGI: 11.3 µM
[26]
  GI50: 0.319 µM
  TGI: 10 µM
[27]
  GI50: 19.1 µM
  TGI: 34.6 µM
[28]
  GI50: 37 µM
  TGI: > 100 µM
